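Five compound concentrations were applied to cells in 96-well plates for 48 hours; endpoints were derived by simple linear interpolation of the resulting dose-response curve. The concentration for full growth arrest is given as TGI.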
Key:
Assay in all cases: NCI tumour cell line growth inhibition, 48 h
M19-MEL melanoma = test system: M19-MEL melanoma
P388/ADR leukemia = test system: P388/ADR leukemia
P388 leukemia = test system: P388 leukemia
SN12K1 renal = test system: SN12K1 renal
RXF-631 renal = test system: RXF-631 renal

Row | SMILES | TGI (M19-MEL melanoma) | TGI (P388/ADR leukemia) | TGI (P388 leukemia) | TGI (SN12K1 renal) | TGI (RXF-631 renal)
1 | CN(C)CCNC(=O)c1cccc2c1Nc1ccccc1S2 | 29.6 µM | 9.51 µM | 6.23 µM | 20.7 µM | 
2 | CC(=O)NNc1nc(C)c(C(=O)NNC(=O)C(=O)Nc2ccc([N+](=O)[O-])cc2[N+](=O)[O-])s1 |  |  |  |  | > 100 µM

Reference: PubChem BioAssay (NCI)
